# Laboratory results reported in paper PMC5218480 (PLoS ONE, 2017).
# Test system: MV-4-11 cells
# Test: Gene expression microarray analysis (Affymetrix PrimeView) and GSEA
# Assay type: cell-based, human
# Design: RFU PODN (11730768_x_at) / Fold change /veh PODN (11730768_x_at) / RFU LINC00158 (11744669_a_at) / Fold change /veh LINC00158 (11744669_a_at) / RFU DUSP10 (11751237_a_at) / Fold change /veh DUSP10 (11751237_a_at) / RFU ID3 (11757404_x_at) / Fold change /veh ID3 (11757404_x_at) / RFU PLEKHG5 (11737974_s_at) / Fold change /veh PLEKHG5 (11737974_s_at) / RFU LRRC4B (11730491_at) / Fold change /veh LRRC4B (11730491_at) / RFU GIMAP4 (11747438_a_at) / Fold change /veh GIMAP4 (11747438_a_at) / RFU KRT8 (11758183_x_at) / Fold change /veh KRT8 (11758183_x_at) / RFU CNN1 (11734310_a_at) / Fold change /veh CNN1 (11734310_a_at) / RFU VPS37D (11726825_at) / Fold change /veh VPS37D (11726825_at) / RFU C10orf10 (11716522_x_at) / Fold change /veh C10orf10 (11716522_x_at) / RFU KIR2DL2 /// KIR2DL4 /// KIR2DL5A /// KIR2DL5B /// KIR2DS1 /// KIR2DS2 /// KIR2DS3 /// KIR2DS4 /// KIR3DL3 /// KIR3DL3 /// KIR3DS1 (11738374_at) / Fold change /veh KIR2DL2 /// KIR2DL4 /// KIR2DL5A /// KIR2DL5B /// KIR2DS1 /// KIR2DS2 /// KIR2DS3 /// KIR2DS4 /// KIR3DL3 /// KIR3DL3 /// KIR3DS1 (11738374_at) / RFU C1QL1 (11718748_at) / Fold change /veh C1QL1 (11718748_at) / RFU TMPRSS4 (11747572_a_at) / Fold change /veh TMPRSS4 (11747572_a_at) / RFU HAMP (11756126_x_at) / Fold change /veh HAMP (11756126_x_at) / RFU RNFT2 (11725882_a_at) / Fold change /veh RNFT2 (11725882_a_at) / RFU NR4A2 (11747474_a_at) / Fold change /veh NR4A2 (11747474_a_at) / RFU ABCC12 (11746883_a_at) / Fold change /veh ABCC12 (11746883_a_at) / RFU TMEM136 (11760407_x_at) / Fold change /veh TMEM136 (11760407_x_at) / RFU CLDN22 /// WWC2 (11732394_at) / Fold change /veh CLDN22 /// WWC2 (11732394_at) / RFU HLA-DPB1 (11760878_x_at) / Fold change /veh HLA-DPB1 (11760878_x_at) / RFU SPINT1 (11716480_a_at) / Fold change /veh SPINT1 (11716480_a_at) / RFU GAP43 (11754022_s_at) / Fold change /veh GAP43 (11754022_s_at) / RFU A4GNT (11735810_at) / Fold change /veh A4GNT (11735810_at) / RFU PRB3 (11715151_x_at) / Fold change /veh PRB3 (11715151_x_at) / RFU TUBB4B (11761932_at) / Fold change /veh TUBB4B (11761932_at) / RFU CAPN14 (11732068_a_at) / Fold change /veh CAPN14 (11732068_a_at) / RFU TMCC2 (11721928_a_at) / Fold change /veh TMCC2 (11721928_a_at) / RFU IRGQ (11745062_a_at) / Fold change /veh IRGQ (11745062_a_at) / RFU FAM174B (11720279_a_at) / Fold change /veh FAM174B (11720279_a_at) / RFU TMPRSS4 (11748680_a_at) / Fold change /veh TMPRSS4 (11748680_a_at) / RFU FAM212B (11763350_a_at) / Fold change /veh FAM212B (11763350_a_at) / RFU PLEKHG5 (11743358_a_at) / Fold change /veh PLEKHG5 (11743358_a_at) / RFU ZSCAN30 (11745921_a_at) / Fold change /veh ZSCAN30 (11745921_a_at) / RFU CMKLR1 (11741424_a_at) / Fold change /veh CMKLR1 (11741424_a_at) / RFU LOC101060620 /// MAPK8IP1 (11723275_at) / Fold change /veh LOC101060620 /// MAPK8IP1 (11723275_at) / RFU SPTSSB (11747773_x_at) / Fold change /veh SPTSSB (11747773_x_at) / RFU PRSS12 (11739890_at) / Fold change /veh PRSS12 (11739890_at) / RFU BIN1 (11741810_x_at) / Fold change /veh BIN1 (11741810_x_at) / RFU WNT11 (11732464_a_at) / Fold change /veh WNT11 (11732464_a_at) / RFU C10orf10 (11716521_a_at) / Fold change /veh C10orf10 (11716521_a_at) / RFU C5orf56 (11738089_at) / Fold change /veh C5orf56 (11738089_at) / RFU CYB561 (11721691_x_at) / Fold change /veh CYB561 (11721691_x_at) / RFU ANKRD19P (11752326_a_at) / Fold change /veh ANKRD19P (11752326_a_at) / RFU OR2T12 /// OR2T33 /// OR2T8 (11738714_s_at) / Fold change /veh OR2T12 /// OR2T33 /// OR2T8 (11738714_s_at) / RFU VCAN (11748164_a_at) / Fold change /veh VCAN (11748164_a_at) / RFU JSRP1 (11732532_at) / Fold change /veh JSRP1 (11732532_at) / RFU KRTAP10-11 (11738290_x_at) / Fold change /veh KRTAP10-11 (11738290_x_at) / RFU MYO3A (11730013_a_at) / Fold change /veh MYO3A (11730013_a_at) / RFU EBF3 (11725865_a_at) / Fold change /veh EBF3 (11725865_a_at) / RFU CAMK2N1 (11719241_x_at) / Fold change /veh CAMK2N1 (11719241_x_at) / RFU C5orf56 (11738088_a_at) / Fold change /veh C5orf56 (11738088_a_at) / RFU OLFML3 (11715873_a_at) / Fold change /veh OLFML3 (11715873_a_at) / RFU LOC100653217 /// NTM (11731650_a_at) / Fold change /veh LOC100653217 /// NTM (11731650_a_at) / RFU MAPK11 (11762145_a_at) / Fold change /veh MAPK11 (11762145_a_at) / RFU FIZ1 (11724087_x_at) / Fold change /veh FIZ1 (11724087_x_at) / RFU OASL (11726364_x_at) / Fold change /veh OASL (11726364_x_at) / RFU SOX15 (11748057_x_at) / Fold change /veh SOX15 (11748057_x_at) / RFU CD79A (11719716_a_at) / Fold change /veh CD79A (11719716_a_at) / RFU HIST1H1D (11736915_at) / Fold change /veh HIST1H1D (11736915_at) / RFU CASKIN2 (11723855_a_at) / Fold change /veh CASKIN2 (11723855_a_at) / RFU LOC730098 (11760151_x_at) / Fold change /veh LOC730098 (11760151_x_at) / RFU OR4N2 (11742367_at) / Fold change /veh OR4N2 (11742367_at) / RFU PRRT2 (11749266_a_at) / Fold change /veh PRRT2 (11749266_a_at) / RFU SNX32 (11753110_a_at) / Fold change /veh SNX32 (11753110_a_at) / RFU CDHR5 (11726645_a_at) / Fold change /veh CDHR5 (11726645_a_at) / RFU RCAN1 (11760418_a_at) / Fold change /veh RCAN1 (11760418_a_at) / RFU FAM167A (11723789_a_at) / Fold change /veh FAM167A (11723789_a_at) / RFU FAM26E (11764081_at) / Fold change /veh FAM26E (11764081_at) / RFU ISYNA1 (11749810_s_at) / Fold change /veh ISYNA1 (11749810_s_at) / RFU ACY1 (11761880_at) / Fold change /veh ACY1 (11761880_at) / RFU 11764098_at / Fold change /veh 11764098_at / RFU SAMD14 (11745864_x_at) / Fold change /veh SAMD14 (11745864_x_at) / RFU NPB (11741838_a_at) / Fold change /veh NPB (11741838_a_at) / RFU TMPRSS6 (11731388_a_at) / Fold change /veh TMPRSS6 (11731388_a_at) / RFU KRTAP10-2 (11738614_at) / Fold change /veh KRTAP10-2 (11738614_at) / RFU ARHGAP8 /// PRR5-ARHGAP8 (11727945_x_at) / Fold change /veh ARHGAP8 /// PRR5-ARHGAP8 (11727945_x_at) / RFU KRTAP5-7 /// NADSYN1 (11734609_at) / Fold change /veh KRTAP5-7 /// NADSYN1 (11734609_at) / RFU RASL12 (11751679_a_at) / Fold change /veh RASL12 (11751679_a_at) / RFU CDKN2B (11736163_a_at) / Fold change /veh CDKN2B (11736163_a_at) / RFU PRF1 (11729649_at) / Fold change /veh PRF1 (11729649_at) / RFU, ZNF638 /// ZNF638-IT1 / Fold change vs veh, ZNF638 /// ZNF638-IT1 / RFU, PANK3 / Fold change vs veh, PANK3 / RFU, SH3YL1 / Fold change vs veh, SH3YL1 / RFU, ZEB2 / Fold change vs veh, ZEB2 / RFU, NRIP1 / Fold change vs veh, NRIP1 / RFU, PTTG1IP / Fold change vs veh, PTTG1IP / RFU, CAPN2 / Fold change vs veh, CAPN2 / RFU, MED14 / Fold change vs veh, MED14 / RFU, SNORA58 / Fold change vs veh, SNORA58 / RFU, C1orf63 / Fold change vs veh, C1orf63 / RFU, LRRFIP1 / Fold change vs veh, LRRFIP1 / RFU, NDUFAF7 / Fold change vs veh, NDUFAF7 / RFU, SLC12A2 / Fold change vs veh, SLC12A2 / RFU, IBTK / Fold change vs veh, IBTK / RFU, ESF1 / Fold change vs veh, ESF1 / Fold change vs veh, TMEM50B / RFU, TAOK1 / Fold change vs veh, TAOK1 / RFU, ACBD3 / Fold change vs veh, ACBD3 / RFU, TMA16 / Fold change vs veh, TMA16 / RFU, RWDD3 / Fold change vs veh, RWDD3 / RFU, BCAT1 / Fold change vs veh, BCAT1 / RFU, EDEM3 / Fold change vs veh, EDEM3 / RFU, TMEM33 / Fold change vs veh, TMEM33 / RFU, WDR75 / Fold change vs veh, WDR75 / RFU, AHCTF1 / Fold change vs veh, AHCTF1 / RFU, TFRC / Fold change vs veh, TFRC / RFU, ZDHHC17 / Fold change vs veh, ZDHHC17 / RFU, NOM1 / Fold change vs veh, NOM1 / RFU, ARL8B / Fold change vs veh, ARL8B / RFU, ZBTB11 / Fold change vs veh, ZBTB11 / RFU, TAMM41 / Fold change vs veh, TAMM41 / RFU, KIAA1704 /// LOC100996395 / Fold change vs veh, KIAA1704 /// LOC100996395 / RFU, ING1 / Fold change vs veh, ING1 / RFU, TRMT61B / Fold change vs veh, TRMT61B / RFU, FUBP3 / Fold change vs veh, FUBP3 / RFU, TP53 / Fold change vs veh, TP53 / RFU, TNKS2 / Fold change vs veh, TNKS2 / RFU, ZFP14 / Fold change vs veh, ZFP14 / RFU, ACTR2 / Fold change vs veh, ACTR2 / RFU, PPP3R1 / Fold change vs veh, PPP3R1 / RFU, PIK3R1 / Fold change vs veh, PIK3R1 / RFU, HNRNPA1 / Fold change vs veh, HNRNPA1 / RFU, RNF170 / Fold change vs veh, RNF170 / RFU, ZNF28 / Fold change vs veh, ZNF28 / RFU, RNGTT / Fold change vs veh, RNGTT / RFU, OGT / Fold change vs veh, OGT / RFU, BRD1 / Fold change vs veh, BRD1 / RFU, MARS / Fold change vs veh, MARS / RFU, ZNF655 / Fold change vs veh, ZNF655 / RFU, FAHD1 / Fold change vs veh, FAHD1 / RFU, BDP1 / Fold change vs veh, BDP1 / RFU, LRRCC1 / Fold change vs veh, LRRCC1 / RFU, ARID1A / Fold change vs veh, ARID1A / RFU, ZNF146 / Fold change vs veh, ZNF146 / RFU, ZNF330 / Fold change vs veh, ZNF330 / RFU, GPN3 / Fold change vs veh, GPN3 / RFU, C9orf123 / Fold change vs veh, C9orf123 / RFU, N4BP2L2 / Fold change vs veh, N4BP2L2 / RFU, ARFIP1 / Fold change vs veh, ARFIP1 / RFU, FAM179B / Fold change vs veh, FAM179B / RFU, BCL10 / Fold change vs veh, BCL10 / RFU, UHRF1BP1L / Fold change vs veh, UHRF1BP1L / RFU, BET1 / Fold change vs veh, BET1 / RFU, CNOT2 / Fold change vs veh, CNOT2 / RFU, ZNF268 / Fold change vs veh, ZNF268 / Fold change vs veh, ZNF507 / RFU, DGCR2 / Fold change vs veh, DGCR2 / RFU, WDSUB1 / Fold change vs veh, WDSUB1 / Fold change vs veh, HSP90B1 /// MIR3652 / RFU, ADSS / Fold change vs veh, ADSS / RFU, GK / Fold change vs veh, GK / RFU, ZNF148 / Fold change vs veh, ZNF148 / RFU, TAF9 / Fold change vs veh, TAF9 / RFU, SLC1A5 / Fold change vs veh, SLC1A5 / RFU, SLMO2 / Fold change vs veh, SLMO2 / RFU, ABCC4 / Fold change vs veh, ABCC4 / RFU, LOC101060439 /// RAP1B / Fold change vs veh, LOC101060439 /// RAP1B / RFU, RFX7 / Fold change vs veh, RFX7 / RFU, GTPBP10 / Fold change vs veh, GTPBP10 / RFU, CNEP1R1 / Fold change vs veh, CNEP1R1 / RFU, BIVM-ERCC5 /// ERCC5 / Fold change vs veh, BIVM-ERCC5 /// ERCC5 / RFU, ILF3 / Fold change vs veh, ILF3 / RFU 11762660_at / Fold change /veh 11762660_at / RFU VCAN (11757783_s_at) / Fold change /veh VCAN (11757783_s_at) / RFU DDX43 (11728927_at) / Fold change /veh DDX43 (11728927_at) / RFU KRT8 (11758188_x_at) / Fold change /veh KRT8 (11758188_x_at) / RFU NKD1 (11759106_at) / Fold change /veh NKD1 (11759106_at) / RFU SRD5A1 (11742802_a_at) / Fold change /veh SRD5A1 (11742802_a_at) / RFU TPSAB1 /// TPSB2 (11721975_s_at) / Fold change /veh TPSAB1 /// TPSB2 (11721975_s_at) / RFU GSTM3 (11746129_a_at) / Fold change /veh GSTM3 (11746129_a_at) / RFU IL23R (11737362_x_at) / Fold change /veh IL23R (11737362_x_at) / RFU TMEM51 (11727254_a_at) / Fold change /veh TMEM51 (11727254_a_at) / RFU PIWIL2 (11732686_x_at) / Fold change /veh PIWIL2 (11732686_x_at) / RFU ORM1 (11744905_x_at) / Fold change /veh ORM1 (11744905_x_at) / RFU CCDC152 (11743942_at) / Fold change /veh CCDC152 (11743942_at) / RFU ECM1 (11717891_a_at) / Fold change /veh ECM1 (11717891_a_at) / RFU IL23R (11748794_a_at) / Fold change /veh IL23R (11748794_a_at) / RFU TNFAIP8L3 (11732012_x_at) / Fold change /veh TNFAIP8L3 (11732012_x_at) / RFU MBOAT4 (11741988_at) / Fold change /veh MBOAT4 (11741988_at) / RFU 11764193_at / Fold change /veh 11764193_at / RFU TMEM53 (11763286_at) / Fold change /veh TMEM53 (11763286_at) / RFU MAGEB2 (11727129_at) / Fold change /veh MAGEB2 (11727129_at) / RFU TMEM200A (11744735_a_at) / Fold change /veh TMEM200A (11744735_a_at) / RFU CCDC152 (11751479_a_at) / Fold change /veh CCDC152 (11751479_a_at) / RFU FAM211A (11726209_a_at) / Fold change /veh FAM211A (11726209_a_at) / RFU RGS16 (11746705_a_at) / Fold change /veh RGS16 (11746705_a_at) / RFU VCAN (11755009_s_at) / Fold change /veh VCAN (11755009_s_at) / RFU RHOB (11743442_s_at) / Fold change /veh RHOB (11743442_s_at) / RFU RGS16 (11720943_a_at) / Fold change /veh RGS16 (11720943_a_at) / RFU RGS16 (11720944_at) / Fold change /veh RGS16 (11720944_at) / RFU, VPS4B / Fold change vs veh, VPS4B / RFU, CREB1 / Fold change vs veh, CREB1 / RFU, DNAJC13 / Fold change vs veh, DNAJC13 / RFU, GNAQ / Fold change vs veh, GNAQ / RFU, CDK5R1 / Fold change vs veh, CDK5R1 / RFU, ZRANB3 / Fold change vs veh, ZRANB3 / RFU, CUL4A / Fold change vs veh, CUL4A / RFU, CCNY / Fold change vs veh, CCNY / RFU, UFL1 / Fold change vs veh, UFL1 / RFU, COG3 / Fold change vs veh, COG3 / RFU, DIAPH2 / Fold change vs veh, DIAPH2 / RFU, SKA2 / Fold change vs veh, SKA2 / RFU, AFF3 / Fold change vs veh, AFF3 / RFU, LMF1 / Fold change vs veh, LMF1 / RFU, IPO11 / Fold change vs veh, IPO11 / RFU, DFFB / Fold change vs veh, DFFB / RFU, FOXP1 / Fold change vs veh, FOXP1 / RFU, CARD8 / Fold change vs veh, CARD8 / RFU, STRN3 / Fold change vs veh, STRN3 / RFU, ADK / Fold change vs veh, ADK / RFU, RASSF2 / Fold change vs veh, RASSF2 / RFU, WIPF1 / Fold change vs veh, WIPF1 / RFU, LARP1B / Fold change vs veh, LARP1B / RFU, RASA1 / Fold change vs veh, RASA1 / RFU, RB1 / Fold change vs veh, RB1 / RFU, PPFIA1 / Fold change vs veh, PPFIA1 / RFU, MAT2A / Fold change vs veh, MAT2A / RFU, CCT5 / Fold change vs veh, CCT5 / RFU, WDR92 / Fold change vs veh, WDR92 / RFU, CUX1 / Fold change vs veh, CUX1 / RFU, TTC7A / Fold change vs veh, TTC7A / RFU, TMEM135 / Fold change vs veh, TMEM135 / RFU, DEPTOR / Fold change vs veh, DEPTOR / RFU, CPM / Fold change vs veh, CPM / RFU, DNAJB6 / Fold change vs veh, DNAJB6 / RFU, CACNA2D3 / Fold change vs veh, CACNA2D3 / RFU, DTX4 / Fold change vs veh, DTX4 / RFU, TFCP2 / Fold change vs veh, TFCP2 / RFU, GMCL1 /// GMCL1P1 / Fold change vs veh, GMCL1 /// GMCL1P1 / RFU, AEBP2 / Fold change vs veh, AEBP2 / RFU, SNHG1 /// SNORD22 /// SNORD25 /// SNORD26 /// SNORD27 /// SNORD28 /// SNORD29 /// SNORD31 / Fold change vs veh, SNHG1 /// SNORD22 /// SNORD25 /// SNORD26 /// SNORD27 /// SNORD28 /// SNORD29 /// SNORD31 / Fold change (Aza/veh), C12orf56 (ProbeSet 11735607_a_at) / Fold change (ACY-1035/veh), C12orf56 (ProbeSet 11735607_a_at) / Fold change (Aza/veh), FGFR1OP (ProbeSet 11751329_s_at) / Fold change (ACY-1035/veh), FGFR1OP (ProbeSet 11751329_s_at) / Fold change (Aza/veh), VPS36 (ProbeSet 11739960_a_at) / Fold change (ACY-1035/veh), VPS36 (ProbeSet 11739960_a_at) / RFU SYPL1 (11715823_x_at) / Fold change /veh SYPL1 (11715823_x_at) / RFU IGFBP7 (11715501_s_at) / Fold change /veh IGFBP7 (11715501_s_at) / RFU REEP3 (11722064_at) / Fold change /veh REEP3 (11722064_at) / RFU IGLL1 (11728026_x_at) / Fold change /veh IGLL1 (11728026_x_at): dose or concentration left out as unconfirmed
# Conditions: ProbeSet 11716844_s_at; LIST D
smiles,measurement,value
Nc1ccc(-c2cccs2)cc1NC(=O)c1ccc2c(c1)cc(C1CC1)n2CCN1CCOCC1 [ACY-1035],"RFU, DNAJC13",129.69 RFU
